Source: patent publication US7569603B2, “Ester compound and its use in pest control” (Sumitomo Chemical Company, Limited, priority 2006, dated 2009)

Tested on: Adult houseflies
Assay: Knock-down test on adult houseflies by spraying oil solution in a cubic chamber
Format: in vivo, housefly (Musca domestica)
Conditions: 0.7 ml of 0.00625% oil solution sprayed into 70 cm cubic chamber; 5 male and 5 female adult houseflies; counted up to 10 minutes after spraying
Procedure: A solution of 0.00625 part of the present compound (1) in 10 parts of dichloromethane was mixed with 89.99375 parts of deodorized kerosene to obtain a 0.00625% oil solution.
Adult houseflies (5 males and 5 females) were left in a cubic chamber (70 cm at each side). Into the chamber, 0.7 ml of 0.00625% oil solution of the present compound (1) prepared above was sprayed with a spray gun at a pressure of 8.8×10^4 Pa from a small window on the side of the chamber. Then, up to 10 minutes after spraying, the number of knocked-down insects was counted with time. From the results, a time required for knocking down 90% of the tested insects (KT90) was calculated.
In addition, the same test was carried out that 5-benzyl-3-furylmethyl (1R)-cis-2,2-dimethyl-3-((E)-3-ethoxy-3-oxo-1-propenyl)cyclopropanecarboxylate represented by the formula:
[drawing 6] (hereinafter, referred to as the comparative compound (A)), which is the compound described in GB-A-1413491 as compound P19/2; and 3-phenylbenzyl (1R)-cis-2,2-dimethyl-3-((E)-3-ethoxy-2-fluoro-3-oxo-1-propenyl)cyclopropanecarboxylate represented by the formula:
[drawing 7] (hereinafter, referred to as the comparative compound (B)), which is the compound described in U.S. Pat. No. 4,489,093 as example 12 were used as comparative compounds (repeated twice).

SMILES: CCOC(=O)/C(F)=C\[C@H]1[C@@H](C(=O)OCc2cccc(-c3ccccc3)c2)C1(C)C [Comparative compound (B), 3-phenylbenzyl (1R)-cis-2,2-dimethyl-3-((E)-3-ethoxy-2-fluoro-3-oxo-1-propenyl)cyclopropanecarboxylate]
- KT90 (time required for knocking down 90% of the tested insects): 8.9 min

SMILES: CCOC(=O)/C(F)=C\[C@H]1[C@@H](C(=O)OCc2coc(Cc3ccccc3)c2)C1(C)C [Present compound (1), 5-benzyl-3-furylmethyl (1R)-cis-2,2-dimethyl-3-((E)-3-ethoxy-2-fluoro-3-oxo-1-propenyl)cyclopropanecarboxylate]
- KT90 (time required for knocking down 90% of the tested insects): 2.9 min

SMILES: CCOC(=O)/C=C/[C@H]1[C@@H](C(=O)OCc2coc(Cc3ccccc3)c2)C1(C)C [Comparative compound (A), 5-benzyl-3-furylmethyl (1R)-cis-2,2-dimethyl-3-((E)-3-ethoxy-3-oxo-1-propenyl)cyclopropanecarboxylate]
- KT90 (time required for knocking down 90% of the tested insects): 8.0 min
